Experimental findings from PubChem BioAssay (NCI) are described below.

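Five compound concentrations were applied to cells in 96-well plates for 48 hours; endpoints were derived by simple linear interpolation of the resulting dose-response curve. GI50: concentration for 50% inhibition of growth. TGI: total growth inhibition.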

Among the test systems are 786-0 renal; HL-60(TB) leukemia; NCI-H460 lung; RPMI-8226 leukemia; SK-MEL-2 melanoma; SK-MEL-28 melanoma; SNB-19 CNS; RXF 393 renal.
Assay in all cases: NCI anticancer screen, dose series, 48 h

`C[C@]12CCC[C@H](O)[C@H]1C[C@H](CO)CC2`: the TGI in the test with 786-0 renal, with HL-60(TB) leukemia, in the test with NCI-H460 lung, in the test with RPMI-8226 leukemia, with SK-MEL-2 melanoma and with SK-MEL-28 melanoma was greater than 100 µM each time. The same compound had a TGI in the test on SNB-19 CNS greater than 100 µM.
Take `CC(=O)[CH-]C(=O)c1ccccc1.CC(=O)[CH-]C(=O)c1ccccc1.CC[C@H](/C=C/C(C)[C@H]1CCC2[C@@H]3CC=C4C[C@@H]([O-])CC[C@]4(C)C3CC[C@@]21C)C(C)C.CC[O-].[Ti+4]` (stereo not given in full): the GI50 was greater than 100 µM in the test on 786-0 renal; greater than 100 µM in the test with HL-60(TB) leukemia; greater than 100 µM with NCI-H460 lung; greater than 100 µM in the test on RPMI-8226 leukemia; 84.4 µM with RXF 393 renal; greater than 100 µM in the test on SK-MEL-2 melanoma. In addition, the GI50 with SK-MEL-28 melanoma and with SNB-19 CNS was greater than 100 µM throughout. Besides, the TGI with 786-0 renal, with HL-60(TB) leukemia, in the test with NCI-H460 lung, in the test on RPMI-8226 leukemia, in the test on RXF 393 renal and with SK-MEL-2 melanoma was greater than 100 µM each time. In addition, the TGI in the test on SK-MEL-28 melanoma and in the test on SNB-19 CNS was greater than 100 µM each time.
With `C/C(=N\NS(=O)(=O)c1ccc(C)cc1)c1cc2ccccc2n1C`, the TGI in the test on 786-0 renal, with HL-60(TB) leukemia, with NCI-H460 lung, in the test on RPMI-8226 leukemia, in the test on SK-MEL-2 melanoma and in the test with SNB-19 CNS was greater than 100 µM throughout.
`NC1=NN(c2ccccc2)C(=O)C1/C(=N\NC(=O)c1cc2ccccc2cc1O)C(=O)Nc1cccc(C(F)(F)F)c1` (stereo not given): the TGI in the test with 786-0 renal is greater than 100 µM; with HL-60(TB) leukemia, 27.6 µM; in the test on NCI-H460 lung, greater than 100 µM; in the test with RPMI-8226 leukemia it was greater than 100 µM; in the test with RXF 393 renal, greater than 100 µM; in the test on SK-MEL-2 melanoma, 93.8 µM. The TGI in the test with SK-MEL-28 melanoma and with SNB-19 CNS was greater than 100 µM throughout.
With `O=C(/C=C/c1ccccc1Cl)c1cccc2ccccc12`, the TGI in the test with 786-0 renal was found to be 17.9 µM; in the test with HL-60(TB) leukemia, 37.7 µM; in the test on NCI-H460 lung it was 19.7 µM; with RPMI-8226 leukemia it was 91 µM; in the test with RXF 393 renal, 28.6 µM; with SK-MEL-2 melanoma, 35.5 µM. Besides, the TGI in the test with SK-MEL-28 melanoma amounted to 28.1 µM; in the test on SNB-19 CNS, 16.8 µM.
On to `COC(=O)C1=CC2CC1C(S(=O)(=O)c1ccccc1)C2S(=O)(=O)c1ccccc1` (stereo not given), for which the TGI is 22.2 µM in the test on 786-0 renal; 7.29 µM in the test with HL-60(TB) leukemia; 51.5 µM with NCI-H460 lung; 29.3 µM with RPMI-8226 leukemia; 30.4 µM in the test on SK-MEL-28 melanoma; greater than 100 µM in the test with SNB-19 CNS.
`NC(=O)c1ncn(CCN2CCN(C(=O)NCCCCCCNC(=O)N3CCN(CCn4cnc(C(N)=O)c4N)CC3)CC2)c1N`: the TGI in the test on 786-0 renal, with HL-60(TB) leukemia, in the test with NCI-H460 lung, in the test with RPMI-8226 leukemia, in the test with RXF 393 renal and in the test on SK-MEL-2 melanoma was greater than 100 µM in each case. Moreover, the TGI in the test on SK-MEL-28 melanoma and with SNB-19 CNS was greater than 100 µM throughout.
For `COc1ccc2c(c1)[n+]([O-])c(-c1ccc(Br)cc1)c(N)[n+]2[O-]`, the TGI in the test on 786-0 renal is greater than 100 µM; in the test on HL-60(TB) leukemia, greater than 100 µM; in the test on NCI-H460 lung, greater than 100 µM; in the test with RXF 393 renal, greater than 100 µM; in the test with SK-MEL-2 melanoma it was greater than 100 µM; in the test with SK-MEL-28 melanoma, 71.5 µM. The TGI with SNB-19 CNS was greater than 100 µM.
For `CC1=NN2C(c3ccc(C)cc3)=CSC2=NC(C)(C)C1`, the TGI with 786-0 renal, in the test with HL-60(TB) leukemia, in the test on NCI-H460 lung, with RPMI-8226 leukemia, in the test with RXF 393 renal and in the test with SK-MEL-2 melanoma was greater than 100 µM each time. The TGI in the test with SK-MEL-28 melanoma and in the test on SNB-19 CNS was greater than 100 µM in each case.
Take `O=C(CC1(O)C(=O)Nc2ccccc21)c1ccc(F)cc1` (stereo not given): the TGI in the test with 786-0 renal, with HL-60(TB) leukemia, with NCI-H460 lung, in the test on RPMI-8226 leukemia, in the test on RXF 393 renal and in the test with SK-MEL-2 melanoma was greater than 100 µM in each case. In addition, the TGI in the test with SK-MEL-28 melanoma and in the test on SNB-19 CNS was greater than 100 µM each time.
Consider `CC(=O)[CH-]C(=O)c1ccccc1.CC(=O)[CH-]C(=O)c1ccccc1.CC1(C)OCC(C2OC3OC(C)(C)OC3C2[O-])O1.CC1(C)OCC(C2OC3OC(C)(C)OC3C2[O-])O1.[Ti+4]` (stereo not given), for which the GI50 in the test on 786-0 renal was 11.8 µM; in the test on NCI-H460 lung, 11.3 µM; in the test on RXF 393 renal, 12.5 µM; with SK-MEL-2 melanoma it was 7.49 µM; with SK-MEL-28 melanoma, 14 µM. The TGI in the test on 786-0 renal amounted to 27.3 µM; with NCI-H460 lung, 28.4 µM; in the test on RXF 393 renal, 25.3 µM; with SK-MEL-2 melanoma, 25.5 µM; in the test with SK-MEL-28 melanoma, 29.9 µM.
`Cc1cc(Cl)ccc1NC(=O)CCCC(=O)C1CCC/C1=N\NC(=O)CC#N` (stereo not given): the TGI with 786-0 renal, with HL-60(TB) leukemia, with NCI-H460 lung, in the test with RPMI-8226 leukemia, in the test with SK-MEL-2 melanoma and with SK-MEL-28 melanoma was greater than 100 µM each time. For the same compound, in the test on SNB-19 CNS, the TGI is greater than 100 µM.
Consider `COC(=O)C(CC(C)=O)CS(=O)(=O)CC(=O)C(=O)Nc1cccc([N+](=O)[O-])c1` (stereo not given), for which the TGI in the test with 786-0 renal, with NCI-H460 lung, in the test with RPMI-8226 leukemia, in the test on RXF 393 renal, with SK-MEL-2 melanoma and in the test with SK-MEL-28 melanoma was greater than 100 µM in each case. For the same compound, in the test with SNB-19 CNS, the TGI was greater than 100 µM.
In the case of `CCOC(=O)C1=C(C)N(Cc2ccccc2)C(=O)C1CC#N` (stereo not given), the TGI is greater than 100 µM in the test on 786-0 renal; 94.7 µM in the test on HL-60(TB) leukemia; greater than 100 µM in the test with NCI-H460 lung; greater than 100 µM in the test on RPMI-8226 leukemia; greater than 100 µM in the test with RXF 393 renal; greater than 100 µM in the test with SK-MEL-2 melanoma. Also, the TGI with SK-MEL-28 melanoma and with SNB-19 CNS was greater than 100 µM each time.
Turning to `Cc1cc(=O)n2c3c(c4c(cc13)c(CO)cc(=O)n4C)OC2`, the TGI is greater than 100 µM in the test with 786-0 renal; greater than 100 µM with NCI-H460 lung; greater than 100 µM with RPMI-8226 leukemia; 25.1 µM with SK-MEL-2 melanoma; 78.7 µM in the test with SK-MEL-28 melanoma; greater than 100 µM in the test with SNB-19 CNS.
On to `O=C(N/C(=C\c1ccc(/C=C(\NC(=O)c2ccccc2)c2nc3cc(Cl)ccc3[nH]2)cc1)c1nc2cc(Cl)ccc2[nH]1)c1ccccc1`, for which the TGI with 786-0 renal is greater than 100 µM; in the test on NCI-H460 lung, greater than 100 µM; in the test with RPMI-8226 leukemia, 25.4 µM; in the test with RXF 393 renal, 85.3 µM; with SK-MEL-2 melanoma, 99.6 µM; with SK-MEL-28 melanoma it was 53.8 µM. The TGI in the test with SNB-19 CNS is greater than 100 µM.
Regarding `CC1(c2cccc(N)c2)C2C(=O)NC(=O)C1C(=O)NC2=O` (stereo not given), the TGI in the test with 786-0 renal was greater than 100 µM; in the test with HL-60(TB) leukemia it was 43.2 µM; with NCI-H460 lung, greater than 100 µM; in the test with RPMI-8226 leukemia, 40.3 µM; with RXF 393 renal, 71.2 µM; in the test on SK-MEL-2 melanoma, 57.7 µM. In addition, the TGI with SK-MEL-28 melanoma and in the test with SNB-19 CNS was greater than 100 µM each time.
For `COC(=O)NN1C(C)=C(C(=O)OC)C2(C#N)C(C(=O)OC)=C(C)N(NC(=O)OC)C12N` (stereo not given), the TGI in the test with 786-0 renal, with HL-60(TB) leukemia, in the test on NCI-H460 lung, in the test with RPMI-8226 leukemia, in the test with SK-MEL-2 melanoma and in the test on SK-MEL-28 melanoma was greater than 100 µM throughout. In addition, the TGI with SNB-19 CNS was greater than 100 µM.
As to `Cc1ccc2c(c1)C1(OC(=O)c3ccccc31)c1ccc(F)cc1O2` (stereo not given), the TGI was greater than 100 µM in the test with 786-0 renal, 51 µM in the test with HL-60(TB) leukemia, 74.1 µM with RPMI-8226 leukemia and greater than 100 µM in the test with SK-MEL-2 melanoma.
Regarding `Cc1ccc2c(c1)C1C(CO2)C(c2ccccc2)=NN1c1ccccc1` (stereo not given), the TGI with 786-0 renal, with HL-60(TB) leukemia, with NCI-H460 lung, in the test on RPMI-8226 leukemia, with RXF 393 renal and with SK-MEL-2 melanoma was greater than 100 µM each time. Further, the TGI in the test with SK-MEL-28 melanoma and with SNB-19 CNS was greater than 100 µM each time.
In the case of `Cn1c(=O)c2ccc(-c3ccc(Br)cc3)nc2n(C)c1=O`, the TGI in the test on 786-0 renal, in the test on HL-60(TB) leukemia, with NCI-H460 lung, in the test on RPMI-8226 leukemia, in the test with SK-MEL-2 melanoma and in the test on SK-MEL-28 melanoma was greater than 100 µM in each case. The TGI with SNB-19 CNS was greater than 100 µM.
Turning to `CSc1ccc(OCC2OC2O)cc1` (stereo not given), the TGI in the test on 786-0 renal is greater than 100 µM; in the test on HL-60(TB) leukemia it was greater than 83.5 µM; with NCI-H460 lung, greater than 100 µM; in the test with RPMI-8226 leukemia, 99.5 µM; in the test on RXF 393 renal, greater than 100 µM; in the test with SK-MEL-2 melanoma it was greater than 100 µM. In addition, the TGI in the test with SNB-19 CNS is greater than 100 µM.
Take `COC(=O)C1=Cc2cc(OC)c(OC)cc2[C@H](c2ccc(OC)c(OC)c2)C1C(=O)OC` (stereo not given in full): the TGI in the test with 786-0 renal, in the test on HL-60(TB) leukemia, in the test with NCI-H460 lung, in the test with RPMI-8226 leukemia, in the test with RXF 393 renal and with SK-MEL-28 melanoma was greater than 100 µM each time. The compound also came in with a TGI with SNB-19 CNS greater than 100 µM.
